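Method: 48-hour compound exposure of cells in 96-well plates, five concentrations, linear interpolation of endpoints. GI50 = concentration required for 50% inhibition of growth. TGI is the concentration that stops growth completely.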

What all share (assay): inhibition of tumour cell growth, NCI panel, 48 h
Experiment [1] deals with LOX IMVI melanoma.
For experiment [2], the system named is SW-620 colon.
Experiment [3] relates to SK-MEL-28 melanoma.
For experiment [4], the system named is SNB-19 CNS.
Experiment [5] deals with TK-10 renal.
In experiment [6] the test system is HS 578T breast.
The test system of experiment [7] is HCT-116 colon.
For experiment [8], the system named is NCI-H23 lung.
Experiment [9] has as its system SF-295 CNS.
The subject of experiment [10] is MCF7 breast.

Take `CSC1=Nc2c(c(C)c(-c3ccccc3)n2COC(CO)CO)C2=NC(=O)CN12`: the GI50 in experiment [1], in [2], in experiment [3], in [4], in experiment [5] and in [6] was above 100 µM in each case. In addition, the GI50 in experiment [7], in [8], in experiment [9] and in [10] was above 100 µM in each case. Also, the TGI in experiment [1], in experiment [2], in experiment [3], in experiment [4], in [5] and in [6] was above 100 µM in each case. Moreover, the TGI in experiment [7], in experiment [8], in experiment [9] and in experiment [10] was above 100 µM throughout.

Regarding `COc1ccc(-c2[nH]c3ccccc3c2/C=C(\C#N)S(=O)(=O)c2ccccc2)cc1`, the GI50 in [1] is 1.23 µM; in experiment [2], 0.503 µM; in [3], 1.48 µM; in experiment [4] it was 0.844 µM; in [5], 3.65 µM; in experiment [6] it was 0.671 µM. Further, the GI50 in [7] is 0.391 µM; in experiment [8], 0.769 µM; in [9] it was 0.487 µM; in experiment [10], 0.398 µM. Further, the TGI in experiment [1] was above 100 µM; in experiment [2] it was above 100 µM; in experiment [3], above 71.9 µM; in experiment [4], above 100 µM; in experiment [5], above 100 µM; in [6], above 46 µM. The TGI in experiment [7] was above 38 µM; in [8] it was above 61.1 µM; in experiment [10] it was above 51.6 µM.

Consider `Cc1ccc(S(=O)(=O)NC(=O)OC23COCN2COC3)cc1`, for which the TGI in [1], in [2], in experiment [3], in [4], in experiment [5] and in [6] was above 100 µM in each case. The TGI in experiment [7], in experiment [8], in experiment [9] and in [10] was above 100 µM in each case.

As for `COc1cc(-c2ncn(/C=C\c3nnco3)n2)cc(C(F)(F)F)c1`, the GI50 is 0.0906 µM in experiment [1]; 0.0663 µM in experiment [2]; 0.125 µM in experiment [3]; 0.175 µM in [4]; 0.726 µM in [5]; 0.488 µM in [6]. Further, the GI50 in experiment [7] is 0.153 µM; in experiment [8] it was 0.132 µM; in experiment [9] it was 0.08 µM; in experiment [10], 0.179 µM. Also, the TGI in [1] is 2.02 µM; in experiment [2], 31.7 µM; in [3] it was above 34.6 µM; in experiment [4] it was above 100 µM; in [5], 23 µM; in experiment [6], above 100 µM. For the same compound, the TGI in [7] is 13.5 µM; in [8] it was above 64.8 µM; in experiment [9] it was above 100 µM; in experiment [10], above 33.4 µM.

For `CN1C(=NCCO)NS(=O)(=O)c2ccccc21`, the TGI in [1], in experiment [2], in [3], in [4], in [5] and in experiment [6] was above 100 µM throughout. The TGI in experiment [7], in experiment [8], in experiment [9] and in [10] was above 100 µM in each case.

For the compound `O=C1C(Nc2cccc(O)c2)=C(Sc2ccccc2)C(=O)N1Cc1ccccc1`, the GI50 is 13 µM in [1]; 14.2 µM in experiment [2]; 11.8 µM in [3]; 13 µM in experiment [4]; 11.5 µM in experiment [6]; 9.87 µM in [7]. The values for the GI50 in experiment [8], in experiment [9] and in experiment [10] were 11.4 µM, 13.5 µM and 6.87 µM, respectively. The TGI in [1] is 39.4 µM; in experiment [2] it was 33.4 µM; in experiment [3], 26.1 µM; in experiment [4], 27 µM; in experiment [5] it was 16.8 µM; in experiment [6], 43.8 µM. Besides, the TGI in experiment [7] worked out at 21.5 µM; in [8], 27.8 µM; in [9], 50.2 µM; in experiment [10] it was 22.8 µM.

With `COC(=O)c1cc([N+](=O)[O-])cc([N+](=O)[O-])c1Cl`, the GI50 was 1.75 µM in [1]; 1.87 µM in [2]; 1.94 µM in experiment [3]; 17.4 µM in experiment [4]; 2.48 µM in experiment [5]; 2.28 µM in experiment [6]. Moreover, the GI50 was 1.06 µM in [7], 19.3 µM in experiment [8], 19.3 µM in experiment [9] and 1.94 µM in [10]. Moreover, the TGI stood at 3.36 µM in [1]; 3.52 µM in experiment [2]; 4.08 µM in [3]; 34.5 µM in experiment [4]; 6.48 µM in experiment [5]; 5.86 µM in experiment [6]. The TGI in [7] stood at 2.63 µM; in experiment [8], 69.6 µM; in experiment [9], 36.9 µM; in experiment [10] it was 4.6 µM.

`CN1CCCC1c1cccnc1.O=C(O)c1ccccc1O.O=C([O-])c1ccccc1[OH2+].O=C([O-])c1ccccc1[OH2+].[Mn+2]` (stereo not drawn): the GI50 in experiment [1] is above 100 µM; in experiment [2], 64.3 µM; in experiment [3], above 100 µM; in experiment [4] it was above 100 µM; in experiment [5], above 100 µM; in experiment [6] it was above 100 µM. Besides, the GI50 in experiment [7] is above 100 µM; in experiment [8], above 100 µM; in experiment [9], above 100 µM; in experiment [10], 40.3 µM. Further, the TGI in experiment [1], in experiment [2], in [3], in experiment [4], in experiment [5] and in experiment [6] was above 100 µM in each case. Moreover, the TGI in experiment [7], in experiment [8], in experiment [9] and in experiment [10] was above 100 µM each time.

For the origin of these results see PubChem BioAssay (NCI).
